Experimental data as given in patent US10195196B2, “1,4-disubstituted pyridazine analogs there of and methods for treating SMN-deficiency-related conditions” (NOVARTIS AG, priority 2012, dated 2019).

Test system: SMN protein
Experiment: cellular SMN ELISA (SMN protein elevation)
Assay type: cell-based
Details: ELISA condition 2: compound concentration 100 pM-10 uM, myoblast cell line from SMNdelta7 mouse model, 24 hours treatment; for SMN activity Fold: fold activation over DMSO control
Method in brief: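 SMNdelta7 mouse-derived myoblasts were treated with compound for 24 h, then lysed. SMN protein was quantified by sandwich ELISA (HRP/TMB, 450 nm) and reported as fold over DMSO and EC50, over 20 nM–10 μM or 100 pM–10 μM depending on condition.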

SMILES	EC50	SMN activity Fold
CN(c1ccc(-c2cc(-c3ccn[nH]3)ccc2O)nn1)C1CC(C)(C)NC(C)(C)C1 [Example 32-6, 2-(6-(methyl(2,2,6,6-tetramethylpiperidin-4-yl)amino)pyridazin-3-yl)-4-(1H-pyrazol-3-yl)phenol]	92 nM	2.69 Fold
CN(c1ccc(-c2cc(-c3ccnc(O)c3)ccc2O)nn1)C1CC(C)(C)NC(C)(C)C1 [Example 32-7, 4-(4-hydroxy-3-(6-(methyl(2,2,6,6-tetramethylpiperidin-4-yl)amino)pyridazin-3-yl)phenyl)pyridin-2-ol]	551 nM	3.27 Fold
Cn1ccc(-c2ccc(O)c(-c3ccc(OC4CC(C)(C)NC(C)(C)C4)nn3)c2)cc1=O [Example 32-8, 4-(4-hydroxy-3-(6-((2,2,6,6-tetramethylpiperidin-4-yl)oxy)pyridazin-3-yl)phenyl)-1-methylpyridin-2(1H)-one]	433 nM	2.61 Fold
CC1(C)CC(Oc2ccc(-c3cc(-c4ccnc(O)c4)ccc3O)nn2)CC(C)(C)N1 [Example 32-9, 4-(4-hydroxy-3-(6-((2,2,6,6-tetramethylpiperidin-4-yl)oxy)pyridazin-3-yl)phenyl)pyridin-2-ol]	485 nM	2.90 Fold
CN(c1ccc(-c2ccc(-c3cccc4cn[nH]c34)cc2O)nn1)C1CC(C)(C)NC(C)(C)C1 [Example 33-1, 5-(1H-indazol-7-yl)-2-(6-(methyl(2,2,6,6-tetramethylpiperidin-4-yl)amino)pyridazin-3-yl)phenol]	349 nM	2.29 Fold
CN(c1ccc(-c2cc(Cl)c(-c3cn[nH]c3)cc2O)nn1)C1CC(C)(C)NC(C)(C)C1 [Example 34-1, 4-chloro-2-(6-(methyl(2,2,6,6-tetramethylpiperidin-4-yl)amino)pyridazin-3-yl)-5-(1H-pyrazol-4-yl)phenol]	7 nM	2.80 Fold
CN(c1ccc(-c2cc(F)c(-c3cn[nH]c3)cc2O)nn1)C1CC(C)(C)NC(C)(C)C1 [Example 34-2, 4-fluoro-2-(6-(methyl(2,2,6,6-tetramethylpiperidin-4-yl)amino)pyridazin-3-yl)-5-(1H-pyrazol-4-yl)phenol]	2 nM	2.49 Fold
CN(c1ccc(-c2cc(-c3c[nH]cn3)c(F)cc2O)nn1)C1CC(C)(C)NC(C)(C)C1 [Example 34-3, 5-fluoro-4-(1H-imidazol-4-yl)-2-(6-(methyl(2,2,6,6-tetramethylpiperidin-4-yl)amino)pyridazin-3-yl)phenol]	27 nM	2.56 Fold
CN(c1ccc(-c2cc(-c3cn[nH]c3)c(F)cc2O)nn1)C1CC(C)(C)NC(C)(C)C1 [Example 34-4, 5-fluoro-2-(6-(methyl(2,2,6,6-tetramethylpiperidin-4-yl)amino)pyridazin-3-yl)-4-(1H-pyrazol-4-yl)phenol]	37 nM	2.34 Fold
CN(c1ccc(-c2cc(-c3ccn[nH]3)c(F)cc2O)nn1)C1CC(C)(C)NC(C)(C)C1 [Example 34-5, 5-fluoro-2-(6-(methyl(2,2,6,6-tetramethylpiperidin-4-yl)amino)pyridazin-3-yl)-4-(1H-pyrazol-5-yl)phenol]	56 nM	2.75 Fold
CN(c1ccc(-c2cc3c(cc2O)C(=O)CC3)nn1)C1CC(C)(C)NC(C)(C)C1 [Example 35-1, 6-hydroxy-5-(6-(methyl(2,2,6,6-tetramethylpiperidin-4-yl)amino)pyridazin-3-yl)-2,3-dihydro-1H-inden-1-one]	27 nM	2.79 Fold
CN(c1ccc(-c2cc3c(cc2O)-c2[nH]ncc2C3)nn1)C1CC(C)(C)NC(C)(C)C1 [Example 35-2, 6-(6-(methyl(2,2,6,6-tetramethylpiperidin-4-yl)amino)pyridazin-3-yl)-1,4-dihydroindeno[1,2-c]pyrazol-7-ol]	10 nM	2.84 Fold
CN(c1ccc(-c2cc3c(cc2O)/C(=N/O)CC3)nn1)C1CC(C)(C)NC(C)(C)C1 [Example 35-3, 6-hydroxy-5-(6-(methyl(2,2,6,6-tetramethylpiperidin-4-yl)amino)pyridazin-3-yl)-2,3-dihydro-1H-inden-1-one oxime]	11 nM	2.62 Fold
CN(c1ccc(-c2cc3c(cc2O)C(O)CC3)nn1)C1CC(C)(C)NC(C)(C)C1 (centres unmarked) [Example 35-4, 5-(6-(methyl(2,2,6,6-tetramethylpiperidin-4-yl)amino)pyridazin-3-yl)-2,3-dihydro-1H-indene-1,6-diol]	131 nM	2.11 Fold
CN(c1ccc(-c2cc3c(cc2O)-c2nc(N)sc2C3)nn1)C1CC(C)(C)NC(C)(C)C1 [Example 35-5, 2-amino-6-(6-(methyl(2,2,6,6-tetramethylpiperidin-4-yl)amino)pyridazin-3-yl)-8H-indeno[1,2-d]thiazol-5-ol]	6 nM	2.44 Fold
CN(c1ccc(-c2cc3c(cc2O)CCn2cncc2-3)nn1)C1CC(C)(C)NC(C)(C)C1 [Example 35-6, 9-(6-(methyl(2,2,6,6-tetramethylpiperidin-4-yl)amino)pyridazin-3-yl)-5,6-dihydroimidazo[5,1-a]isoquinolin-8-ol]	51 nM	2.21 Fold
CN(c1ccc(-c2cc(C(=O)NCc3cnn(C)c3)ccc2O)nn1)C1CC(C)(C)NC(C)(C)C1 [Example 36-1, 4-hydroxy-3-(6-(methyl(2,2,6,6-tetramethylpiperidin-4-yl)amino)pyridazin-3-yl)-N-((1-methyl-1H-pyrazol-4-yl)methyl)benzamide]	652 nM	2.04 Fold
CN(c1ccc(-c2cc(-n3cc(CO)cn3)ccc2O)nn1)C1CC(C)(C)NC(C)(C)C1 [Example 37-1, 4-(4-(hydroxymethyl)-1H-pyrazol-1-yl)-2-(6-(methyl(2,2,6,6-tetramethylpiperidin-4-yl)amino)pyridazin-3-yl)phenol]	118 nM	2.59 Fold
CN(c1ccc(-c2ccc3cnc(OCc4ccccc4)cc3c2)nn1)C1CC(C)(C)NC(C)(C)C1 [Example 39-1, 6-(3-(benzyloxy)isoquinolin-6-yl)-N-methyl-N-(2,2,6,6-tetramethylpiperidin-4-yl)pyridazin-3-amine]	1030 nM	2.65 Fold
CN(c1ccc(-c2ccc3ccnc(OCc4ccccc4)c3c2)nn1)C1CC(C)(C)NC(C)(C)C1 [Example 39-2, 6-(1-(benzyloxy)isoquinolin-7-yl)-N-methyl-N-(2,2,6,6-tetramethylpiperidin-4-yl)pyridazin-3-amine]	408 nM	3.04 Fold
COc1cc(-c2cc(O)c(-c3ccc(N(C)C4CC(C)(C)NC(C)(C)C4)nn3)c(F)c2)ccn1 [Example 40-1, 3-fluoro-5-(2-methoxypyridin-4-yl)-2-(6-(methyl(2,2,6,6-tetramethylpiperidin-4-yl)amino)pyridazin-3-yl)phenol]	79 nM	2.58 Fold
CN(c1ccc(-c2c(O)cc(-c3cc[nH]c(=O)c3)cc2F)nn1)C1CC(C)(C)NC(C)(C)C1 [Example 40-2, 4-(3-fluoro-5-hydroxy-4-(6-(methyl(2,2,6,6-tetramethylpiperidin-4-yl)amino)pyridazin-3-yl)phenyl)pyridin-2(1H)-one]	25 nM	2.78 Fold
